The results in this text go back to article PMC6245477, “Discovery of a Novel CCR5 Antagonist Lead Compound Through Fragment Assembly” (Molecules, 2008).

In one data set the target is T1, CCR5 (Homo sapiens, UniProt P51681).
T1 construct: expressed in transfected cells
Nature of the data set: Calcium mobilization assay (RANTES-induced, Fluo-4 AM). The format is cell-based. The conditions noted are these: for IC50: CHO cells stably expressing CCR5 and Gα16, RANTES 30 nM, read-out: IC50 (antagonistic activity against CCR5); for effect of structural change on potency relative to compound 2: SAR statement from IC50 values. The method, then:
For the primary assay, the percent inhibitory rates of the compounds 1, 2 and 2a-l at 1 μM were measured. Except compounds 2a and 2c, the other twelve compounds were remarkably antagonist of CCR5 activity. Therefore, we determined their IC50 values (Table 1).
CHO cells stably expressing CCR5 and Gα16 were loaded with 2 μmol/L Fluo-4 AM in Hanks balanced salt solution (HBSS, containing KCl 5.4 mM, Na2HPO4 0.3 mM, KH2PO4 0.4 mM, NaHCO3 4.2 mM, CaCl2 1.3 mM, MgCl2 0.5 mM, Mg2SO4 0.6 mM, NaCl 137 mM, BSA 5 g/L, Glucose 5.6 mM, Sulfinpyrazone 250 μM, pH 7.4) at 37 °C for 45 minutes. After the cells being rinsed with the reaction buffer, 50 μL HBSS containing known antagonists (positive control), compounds of interest or DMSO (negative control, final concentration 1%) were added. After incubation at room temperature for 10 minutes, 25 μL RANTES (final concentration 30 nM) was dispensed into the well using a FlexStation II micro-plate reader (Molecular Devices, Sunnyvale, CA, USA) and intracellular calcium change was recorded with an excitation wavelength of 485 nm and emission wavelength of 525 nm. The half maximal inhibitory concentrations (IC50s) of compounds were determined with GraphPad Prism software by constructing their dose-response curves.
In general terms: Calcium flux is commonly read through the fluorescence of an indicator in the cells.

T1 sequence (P51681 whole entry): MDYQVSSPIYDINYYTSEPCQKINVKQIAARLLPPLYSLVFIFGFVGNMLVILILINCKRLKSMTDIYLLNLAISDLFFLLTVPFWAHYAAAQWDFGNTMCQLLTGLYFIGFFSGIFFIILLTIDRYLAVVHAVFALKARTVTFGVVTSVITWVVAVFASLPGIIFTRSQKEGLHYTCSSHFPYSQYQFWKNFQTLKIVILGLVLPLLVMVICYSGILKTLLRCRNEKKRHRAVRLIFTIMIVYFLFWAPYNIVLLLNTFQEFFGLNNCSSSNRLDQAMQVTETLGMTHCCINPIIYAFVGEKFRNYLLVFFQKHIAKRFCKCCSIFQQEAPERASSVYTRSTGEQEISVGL

Regarding `O=C(CCC(=O)N1CCN(c2ccnc3cc(Cl)ccc23)CC1)N1CCN(c2ccnc3cc(Cl)ccc23)CC1` [Compound 1, 1,4-bis(4-(7-chloroquinolin-4-yl)piperazin-1-yl)butane-1,4-dione], the IC50 (in general, the point on the concentration scale where inhibition reaches its midpoint) at CCR5 is 2000 nM.
As to `O=C(N[C@@H](CCN1CCN(c2ccnc3cc(Cl)ccc23)CC1)c1ccccc1)C1CCC(F)(F)CC1` [Compound 2, N-((S)-3-(4-(7-Chloroquinolin-4-yl)piperazin-1-yl)-1-phenylpropyl)-4,4-difluorocyclohexanecarbox-amide], at CCR5, the IC50 amounted to 692 nM. Further, on CCR5 (ratio of IC50 values, vs compound 1), the “fold change of IC50 compared to compound 1” value is recorded as 3 fold.
`O=C(N[C@@H](CCN1CCN(c2ccnc3cc(Cl)ccc23)CC1)c1ccccc1)c1ccc(F)cc1` [Compound 2a, N-((S)-3-(4-(7-Chloroquinolin-4-yl)piperazin-1-yl)-1-phenylpropyl)-4-fluorobenzamide]: the melting point (as a rule, the temperature, or range, at which the solid turns liquid) fell in the range of 77 to 79 °C.
In the case of `O=C(N[C@@H](CCN1CCN(c2ccnc3cc(Cl)ccc23)CC1)c1ccccc1)C1CCCCC1` [Compound 2b, N-((S)-3-(4-(7-Chloroquinolin-4-yl)piperazin-1-yl)-1-phenylpropyl)cyclohexanecarboxamide], the melting point fell in the range of 153 to 158 °C. Moreover, the IC50 at CCR5 came out at 2660 nM.
`O=C1CCC(C(=O)N[C@@H](CCN2CCN(c3ccnc4cc(Cl)ccc34)CC2)c2ccccc2)CC1` [Compound 2d, N-((S)-3-(4-(7-Chloroquinolin-4-yl)piperazin-1-yl)-1-phenylpropyl)-4-oxocyclohexanecarboxamide] came in with a melting point of 56 to 59 °C. Moreover, the IC50 on CCR5 was over 1000 nM.
The like results for `O=C(Cc1ccccc1)N[C@@H](CCN1CCN(c2ccnc3cc(Cl)ccc23)CC1)c1ccccc1` [Compound 2e, N-((S)-3-(4-(7-Chloroquinolin-4-yl)piperazin-1-yl)-1-phenylpropyl)-2-phenylacetamide] were, in that order, 69 to 72 °C and over 10000 nM.
As for `Cc1ccc(S(=O)(=O)N[C@@H](CCN2CCN(c3ccnc4cc(Cl)ccc34)CC2)c2ccccc2)cc1` [Compound 2f, N-((S)-3-(4-(7-Chloroquinolin-4-yl)piperazin-1-yl)-1-phenylpropyl)-4-methylbenzenesulfonamide], the melting point lay within 132 to 136 °C. For the same compound, on CCR5, the concentration for half-maximal inhibition (IC50) was over 10000 nM and the “effect of structural change on potency relative to compound 2” value is “decrease or loss of potency”.
`O=C(N[C@@H](CCN1CCN(c2ncccn2)CC1)c1ccccc1)C1CCC(F)(F)CC1` [Compound 2g, N-((S)-3-(4-(Pyrimidin-2-yl)piperazin-1-yl)-1-phenylpropyl)-4,4-difluorocyclohexanecarboxamide]: the IC50 at CCR5 is over 1000 nM.
Same read-out and setting: in the case of `O=C(N[C@@H](CCN1CCN(c2ncnc3[nH]cnc23)CC1)c1ccccc1)C1CCC(F)(F)CC1` [Compound 2h, N-((S)-3-(4-(9H-Purin-6-yl)piperazin-1-yl)-1-phenylpropyl)-4,4-difluorocyclohexanecarboxamide] it was over 10000 nM.
Turning to `O=C(N[C@@H](CCN1CCN(c2ccncc2)CC1)c1ccccc1)C1CCC(F)(F)CC1` [Compound 2i, N-((S)-3-(4-(pyridin-4-yl)piperazin-1-yl)-1-phenylpropyl)-4,4-difluorocyclohexanecarboxamide], the IC50 at CCR5 was over 10000 nM.
In the case of `O=C(N[C@@H](CCN1CCN(c2ccc3ccccc3n2)CC1)c1ccccc1)C1CCC(F)(F)CC1` [Compound 2j, N-((S)-3-(4-(Quinolin-2-yl)piperazin-1-yl)-1-phenylpropyl)-4,4-difluorocyclohexanecarboxamide], the melting point is 50 to 53 °C. Moreover, the IC50 on CCR5 amounted to 233 nM. On CCR5 (ratio of IC50 values, vs compound 2), the “fold increase in potency compared with compound 2” value was found to be 3 fold.
`O=C(NC(CCN1CCN(c2ccnc3cc(Cl)ccc23)CC1)c1ccccc1)C1CCC(F)(F)CC1` (centres unmarked) [Compound 2k, N-(3-(4-(7-Chloroquinolin-4-yl)piperazin-1-yl)-1-phenylpropyl)-4,4-difluorocyclohexanecarboxamide]: at CCR5, the IC50 came out at 669 nM and the “effect of structural change on potency relative to compound 2” value is on record as “no effect on potency”.
As for `O=C(C1CCC(F)(F)CC1)N1CCN(c2ccnc3cc(Cl)ccc23)CC1` [Compound 2l, (4-(7-chloroquinolin-4-yl)piperazin-1-yl)(4,4-difluorocyclohexyl)methanone], at CCR5, the IC50 is over 1000 nM and the “effect of structural change on potency relative to compound 2” value is “nearly leads to a loss of potency”.
